Test results as given in PMC12656546, “Enterohepatic Recirculation-Mediated Reabsorption of Aristolochic Acid I: Revealed by Toxicokinetics and Metabolite Identification in Rats” (Toxics, 2025).
Values joined by “and” are separate entries in the source; they are usually repeats but may differ in a detail not shown here. Equal entries are not always repeated. Where two headings read alike, the source gives them in different places.

Assays:
[1] = Toxicokinetic study of AAI after single oral administration (plasma, UPLC-QQQ-MS/MS, NCA); type: in vivo, F344 rats; conditions: for t1/2 / tmax / AUC0→t / CL/F / Cmax / Vd: individual pooled profiles (animal pairs), Table S4
Description: For toxicokinetic study, forty-eight […] F344 rats (specific pathogen-free grade) were enrolled in the study, with equal numbers of males and females. All rats were purchased from Charles River Laboratory (Raleigh, NC, USA). All rats were confirmed to be healthy based on a series of physical health examinations. Rats were acclimated for 5 days at a temperature of 20–26 °C, humidity of 40–70% and a 12 h light/dark circle. The rats were randomly divided into four groups (n = 12 per group), with equal numbers of males and females in each group. The allocation was performed separately for each sex (female and male) based on body weight using a stratified randomization method. During the experiment, rats were fasted and had access to water ad libitum. To minimize confounding factors, treatments and measurements were randomized within each session. Cages from different groups were evenly distributed across racks in the same room to reduce bias from light and temperature. This study was approved by the Institutional Animal Care and Use Committee (IACUC) of the National Drug Safety Evaluation Center (Approval No. IACUC-2024-K011, 20 September 2024).
During the experiment, each rat received a single oral administration via gastric gavage. Rats in the control group were administered with 0.5% sodium carboxymethyl cellulose (CMC-Na) suspension. For the treatment groups, rats were administered with gavage solution containing 10, 30 and 100 mg/kg of AAI. The gavage solution was prepared by uniformly dispersing the reference standard of AAI in the 0.5% CMC-Na solution. After oral administration, blood samples were collected from the postorbital vein plex of rats and immediately placed in EDTA tubes. To capture potential reabsorption which might occur long after AAI administration, 15 blood sampling time points were established for each dose group. A sparse sampling approach was employed to avoid excessive blood loss in each rat. For each dosage, 12 rats were subdivided into two groups. For the first group, blood samples were collected from 6 rats at 10, 30, 60, 90, 120, 240, 420, and 600 min after AAI administration; for the second group, blood samples were collected from these 6 rats at 12, 14, 16, 18, 20, 22, and 24 h after AAI administration. Therefore, the experimental design ensured that six biological replicates were obtained for each sampling time point, enabling robust toxicokinetic analysis.
Rat plasma samples were prepared as follows: Blood was centrifuged at 13,200 rpm for 10 min. Then, 25 μL of retrieved plasma was transferred to 2 mL centrifuge tubes, followed by the addition of 75 μL of methanol/acetonitrile solution (v/v, 1∶1) containing indomethacin as internal standard (IS). After vortexing for 2 min and centrifugation for 10 min at 13,200 rpm, the supernatant was used as study samples for quantitative analysis. Quality control samples (QCs) and calibration standards were prepared by spiking blank plasma with different concentrations of AAI standard solution. The QCs and calibration standards were processed using identical procedures as the study samples.
A method of ultra-performance liquid chromatography coupled with triple quadrupole tandem mass spectrometry (UPLC-QQQ-MS/MS) was developed to achieve the quantitation of AAI in rat plasma. The LC-MS/MS analysis was performed using an Acquity UPLC I-Class system coupled with an Xevo TQ XS spectrometer (Waters, Milford, MA, USA). An Acquity UPLC BEH C18 column (2.1 mm × 50 mm, 1.7 μm, Waters, Milford, MA, USA) was employed for chromatographic separation. The mobile phases consisted of water containing 5 mmol/L ammonium formate/0.1% formic acid (A) and acetonitrile (B). The gradient elution was set as follows: 1–4 min, 10–90% B; 4–5 min, 90% B; 5–5.01 min, 90–10% B; 5.01–7 min, 10% B. The flow rate was set at 0.4 mL/min. The column temperature was maintained at 40 °C. A sample volume of 2 μL was injected for analysis. […]

[2] = nine months after a single administration of AAI, cited from earlier work
[3] = high-dose (100 mg/kg), 100 mg/kg
[4] = medium-dose (30 mg/kg), 30 mg/kg
[5] = oral dose from 30 mg/kg to 100 mg/kg (3.33-fold)

COc1cccc2c1cc([N+](=O)[O-])c1c(C(=O)O)cc3c(c12)OCO3 [AAI, Aristolochic acid I]
t1/2 [1, 3]: 20.86 h and 3.11 h and 2.58 h and 3.83 h and 2.80 h and 2.72 h | tmax [1, 3]: 1.00 h | sex-dependent difference in systemic exposure ([1]; high-dose and medium-dose groups, female vs male rats): female rats exhibited higher systemic exposure compared to males | AAI plasma concentration ([1]; low-dose (10 mg/kg oral), 18 h, individual rats M104,M105,M106,F104,F105,F106, below LLOQ set to zero): 0.00 ng/mL | AAI plasma concentration ([1]; low-dose (10 mg/kg oral), 20 h, individual rats M104,M105,M106,F104,F105,F106, below LLOQ set to zero): 0.00 ng/mL | AAI plasma concentration ([1]; low-dose (10 mg/kg oral), 22 h, individual rats M104,M105,M106,F104,F105,F106, below LLOQ set to zero): 0.00 ng/mL | AAI plasma concentration ([1]; low-dose (10 mg/kg oral), 24 h, individual rats M104,M105,M106,F104,F105,F106, below LLOQ set to zero): 0.00 ng/mL | AUC0→t ([1]; low-dose (10 mg/kg), 10 mg/kg): 1221.57 ng·h/mL and 1055.94 ng·h/mL and 876.13 ng·h/mL and 990.96 ng·h/mL | CL/F ([1]; low-dose (10 mg/kg), 10 mg/kg): 1.53 L/h and 1.06 L/h and 1.82 L/h and 1.98 L/h and 1.38 L/h and 2.17 L/h | Cmax ([1]; low-dose (10 mg/kg), 10 mg/kg): 361.73 ng/mL and 436.18 ng/mL and 640.11 ng/mL and 496.76 ng/mL and 247.55 ng/mL | Vd ([1]; low-dose (10 mg/kg), 10 mg/kg): 2.67 L and 1.53 L and 3.03 L and 4.74 L and 1.21 L and 6.96 L | t1/2 ([1]; low-dose (10 mg/kg), 10 mg/kg): 1.00 h and 1.15 h and 1.66 h and 0.61 h and 1.21 h and 2.23 h | tmax ([1]; low-dose (10 mg/kg), 10 mg/kg): 0.17 h | AAI plasma concentration ([1]; medium-dose (30 mg/kg oral), 0.167 h, individual rats M201,M202,M203,F201,F202,F203, 30 mg/kg): 677.97 ng/mL and 891.85 ng/mL and 775.45 ng/mL and 694.87 ng/mL and 747.04 ng/mL and 424.53 ng/mL | AAI plasma concentration ([1]; medium-dose (30 mg/kg oral), 0.5 h, individual rats M201,M202,M203,F201,F202,F203, 30 mg/kg): 2114.14 ng/mL and 2496.11 ng/mL and 2604.27 ng/mL and 3133.29 ng/mL and 2919.69 ng/mL and 1424.98 ng/mL | AAI plasma concentration ([1]; medium-dose (30 mg/kg oral), 1 h, individual rats M201,M202,M203,F201,F202,F203, 30 mg/kg): 1312.37 ng/mL and 2360.84 ng/mL and 2630.67 ng/mL and 814.02 ng/mL and 1128.36 ng/mL and 777.08 ng/mL | AAI plasma concentration ([1]; medium-dose (30 mg/kg oral), 1.5 h, individual rats M201,M202,M203,F201,F202,F203, 30 mg/kg): 508.51 ng/mL and 594.78 ng/mL and 649.03 ng/mL and 685.24 ng/mL and 712.70 ng/mL | AAI plasma concentration ([1]; medium-dose (30 mg/kg oral), 2 h, individual rats M201,M202,M203,F201,F202,F203, 30 mg/kg): 634.01 ng/mL and 354.12 ng/mL and 602.07 ng/mL and 438.37 ng/mL and 724.22 ng/mL and 539.10 ng/mL | AAI plasma concentration ([1]; medium-dose (30 mg/kg oral), 4 h, individual rats M201,M202,M203,F201,F202,F203, 30 mg/kg): 90.61 ng/mL and 161.84 ng/mL and 196.08 ng/mL and 93.85 ng/mL and 264.87 ng/mL and 468.11 ng/mL | AAI plasma concentration ([1]; medium-dose (30 mg/kg oral), 7 h, individual rats M201,M202,M203,F201,F202,F203, 30 mg/kg): 72.74 ng/mL and 83.75 ng/mL and 104.71 ng/mL and 69.29 ng/mL and 131.52 ng/mL and 64.74 ng/mL | AAI plasma concentration ([1]; medium-dose (30 mg/kg oral), 10 h, individual rats M201,M202,M203,F201,F202,F203, 30 mg/kg): 26.96 ng/mL and 52.18 ng/mL and 50.62 ng/mL and 70.78 ng/mL and 76.59 ng/mL and 58.20 ng/mL | AAI plasma concentration ([1]; medium-dose (30 mg/kg oral), 12 h, individual rats M204,M205,M206,F204,F205,F206, 30 mg/kg): 1.92 ng/mL and 6.45 ng/mL and 1.24 ng/mL and 2.81 ng/mL and 3.93 ng/mL and 3.49 ng/mL | AAI plasma concentration ([1]; medium-dose (30 mg/kg oral), 14 h, individual rats M204,M205,M206,F204,F205,F206, 30 mg/kg): 2.74 ng/mL and 3.87 ng/mL and 2.17 ng/mL and 2.87 ng/mL | AAI plasma concentration ([1]; medium-dose (30 mg/kg oral), 16 h, individual rats M204,M205,M206,F204,F205,F206, 30 mg/kg): 0.61 ng/mL and 2.32 ng/mL and 0.38 ng/mL and 4.36 ng/mL and 5.23 ng/mL and 10.35 ng/mL | AAI plasma concentration ([1]; medium-dose (30 mg/kg oral), 18 h, individual rats M204,M205,M206,F204,F205,F206, 30 mg/kg): 0.83 ng/mL and 5.49 ng/mL and 0.29 ng/mL and 6.28 ng/mL and 4.31 ng/mL and 13.62 ng/mL | AAI plasma concentration ([1]; medium-dose (30 mg/kg oral), 20 h, individual rats M204,M205,M206,F204,F205,F206, 30 mg/kg): 0.91 ng/mL and 3.14 ng/mL and 0.30 ng/mL and 7.63 ng/mL and 13.88 ng/mL and 9.00 ng/mL | AAI plasma concentration ([1]; medium-dose (30 mg/kg oral), 22 h, individual rats M204,M205,M206,F204,F205,F206, 30 mg/kg): 0.40 ng/mL and 4.38 ng/mL and 0.15 ng/mL and 6.11 ng/mL and 48.38 ng/mL and 35.23 ng/mL | AAI plasma concentration ([1]; medium-dose (30 mg/kg oral), 24 h, individual rats M204,M205,M206,F204,F205,F206, 30 mg/kg): 0.23 ng/mL and 8.71 ng/mL | AUC0→t [1, 4]: 4703.09 ng·h/mL and 3783.95 ng·h/mL and 3228.59 ng·h/mL and 3983.95 ng·h/mL and 4581.00 ng·h/mL | CL/F [1, 4]: 1.18 L/h and 0.80 L/h and 1.03 L/h and 1.79 L/h and 1.32 L/h and 1.20 L/h | Cmax [1, 4]: 2919.69 ng/mL and 1424.98 ng/mL and 2114.14 ng/mL and 2496.11 ng/mL and 2630.67 ng/mL and 3133.29 ng/mL | Vd [1, 4]: 5.23 L and 4.46 L and 4.94 L and 5.21 L (2×) and 2.97 L | t1/2 [1, 4]: 3.85 h and 3.33 h and 2.02 h and 2.73 h and 1.71 h and 3.08 h | tmax [1, 4]: 1.00 h | fold increase in AUC0→t [1, 5]: 4.3 fold | fold increase in Cmax [1, 5]: 3.7 fold | mice developing liver cancer ([2]; female mice): 41.67% | mice developing liver cancer ([2]; male mice): 78.57%
